Assay results published in patent publication EP0068408A1 (priority 1981, dated 1983).
In brackets after ≈: the same amount, converted by molar mass. Like-named read-outs stand apart in the source and are kept apart here.

Legend:
influenza A0 virus = assay: animal or person; type: in vivo, mice; conditions: for responders at 300 mg/kg / responders at 100 mg/kg / responders at 10 mg/kg / responders at 30 mg/kg: Mus musculus, 360 h, twice a day for 14 days, survivors at 15th day, read-out: Survival rate; for protective action against death due to the infection: result in words, Tables 3 and 4
Influenza B = assay: microbe, parasite or virus in culture; type: cell-based
Influenza A1 = assay: microbe, parasite or virus in culture; type: cell-based
Coxsackie Type B5 = assay: microbe, parasite or virus in culture; type: cell-based; conditions: virus G = Coxsackie Type B5
ECHO = assay: microbe, parasite or virus in culture; type: cell-based
Parainfluenza Type 3 = assay: microbe, parasite or virus in culture; type: cell-based; conditions: virus E = Parainfluenza Type 3
Rhino = assay: microbe, parasite or virus in culture; type: cell-based
Influenza A0 = assay: microbe, parasite or virus in culture; type: cell-based; conditions: virus A = Influenza A0, MDCK, Vero and HEL cells, 2 or 3 days
[1] = Acute toxicity in mice (LD50); type: in vivo; conditions: ddY male mice, suspended in 5% Arabic gum solution, observed for 7 days; for LD50 at 168 h: mouse, in vivo
Experimental: Experimental Example 7: Acute Toxicity in Mice
Each compound of the invention was suspended in 5% Arabic gum solution and given orally (p.o.) or intraperitoneally (i.p.) to groups of ten ddY male mice weighed from 24 to 26 g at the dosage volume of 10 ml/kg. […] LD50 was determined according to the method of Wilcoxon and Litchfield.

influenza virus A/WSN = assay: animal or person; type: in vivo, mice; conditions: in Mus musculus, 360 h, read-out: Survival rate
[2] = ip, i.p., read-out: LD50 value, Intraperitoneal administration
[3] = po, p.o., read-out: LD50 value, Oral administration

| SMILES | responders at 300 mg/kg (influenza A0 virus; oral) [%] | responders at 100 mg/kg (influenza A0 virus; ip, intraperitoneal) [%] | MIC (Influenza B) [µg/mL] | MIC (Influenza A1) [µg/mL] | MIC (Coxsackie Type B5) [µg/mL] | MIC (ECHO) [µg/mL] | MIC (Parainfluenza Type 3) [µg/mL] | MIC (Rhino) [µg/mL] | MIC (Influenza A0) [µg/mL] | LD50 at 168 h [1, 2] [mg/kg] | LD50 at 168 h [1, 3] [mg/kg] | other results |
| --- | --- | --- | --- | --- | --- | --- | --- | --- | --- | --- | --- | --- |
| NC(=O)NNS(=O)(=O)c1cc(C(=O)O)c(Cl)cc1Cl [Compound 23] | 40 | 40 | 300 (≈ 914 µM) | 300 (≈ 914 µM) | 300 (≈ 914 µM) | 300 (≈ 914 µM) | 100 (≈ 305 µM) | 300 (≈ 914 µM) | 100 (≈ 305 µM) | > 1000 | > 3000 | – |
| NS(=O)(=O)c1cc(C(=O)OC2CCCCC2)c(Cl)cc1Cl [Compound 38] | – | – | – | – | – | – | – | – | – | > 1000 | > 3000 | responders at 30 mg/kg (influenza virus A/WSN; ip): 30%; responders at 100 mg/kg (influenza virus A/WSN; ip): 40% |
| CCOC(=O)c1cc(S(N)(=O)=O)c(Cl)cc1Cl [Compound 32] | – | – | – | – | – | – | – | – | – | > 1000 | > 3000 | responders at 100 mg/kg (influenza virus A/WSN; po): 40%; responders at 300 mg/kg (influenza virus A/WSN; po): 50% |
| NS(=O)(=O)c1cc(C(=O)OCc2ccccc2)c(Cl)cc1Cl [Compound 39] | – | – | – | – | – | – | – | – | – | > 1000 | > 3000 | responders at 100 mg/kg (influenza virus A/WSN; po): 30%; responders at 300 mg/kg (influenza virus A/WSN; po): 40% |
| CC(C)NS(=O)(=O)c1cc(C(=O)O)ccc1Cl [Compound 8] | – | – | – | – | – | – | – | – | – | – | – | LD50 value, Intraperitoneal administration ([1]; i.p.): >1,000 mg/kg; LD50 value, Oral administration ([1]; p.o.): >3,000 mg/kg |
| CN1CCN(S(=O)(=O)c2cc(C(=O)O)ccc2Cl)CC1 [Compound 13] | 70 | – | 100 (≈ 314 µM) | 100 (≈ 314 µM) | 100 (≈ 314 µM) | 300 (≈ 941 µM) | 300 (≈ 941 µM) | 300 (≈ 941 µM) | 10 (≈ 31.4 µM) | > 1000 | > 3000 | responders at 100 mg/kg (influenza A0 virus; oral): 50%; responders at 10 mg/kg (influenza A0 virus; ip, intraperitoneal): 40%; responders at 30 mg/kg (influenza A0 virus; ip, intraperitoneal): 50%; protective action against death due to the infection (influenza A0 virus): extremely excellent activity |
| O=C(O)c1ccc(Cl)c(S(=O)(=O)Nc2ccccc2)c1 [Compound 9] | – | – | – | – | – | – | – | – | – | – | – | LD50 value, Oral administration ([1]; p.o.): >3,000 mg/kg |
| NS(=O)(=O)c1cc(C(=O)O)c(Cl)cc1Cl [Compound 19] | – | – | – | – | – | – | – | – | – | – | – | protective action against death due to the infection (influenza A0 virus): extremely excellent activity; LD50 value, Intraperitoneal administration ([1]; i.p.): >1,000 mg/kg; LD50 value, Oral administration ([1]; p.o.): >3,000 mg/kg |
| NC(=O)C(=O)NNS(=O)(=O)c1cc(C(=O)O)c(Cl)cc1Cl [Compound 24] | 50 | 40 | 300 (≈ 842 µM) | 300 (≈ 842 µM) | 300 (≈ 842 µM) | 300 (≈ 842 µM) | 300 (≈ 842 µM) | 100 (≈ 281 µM) | 100 (≈ 281 µM) | > 1000 | > 3000 | – |
| CCNS(=O)(=O)c1cc(C(=O)O)ccc1Cl [Compound 2] | – | – | – | – | – | – | – | – | – | – | – | LD50 value, Intraperitoneal administration ([1]; i.p.): >1,000 mg/kg; LD50 value, Oral administration ([1]; p.o.): >3,000 mg/kg |
| NS(=O)(=O)c1ccc(Cl)cc1C(=O)O [Compound 27] | 40 | 40 | 100 (≈ 424 µM) | 300 (≈ 1270 µM) | 300 (≈ 1270 µM) | 300 (≈ 1270 µM) | 300 (≈ 1270 µM) | 100 (≈ 424 µM) | 30 (≈ 127 µM) | > 1000 | > 3000 | – |
| N=C(N)NS(=O)(=O)c1cc(C(=O)O)c(Cl)cc1Cl [Compound 21] | 50 | 40 | 300 (≈ 961 µM) | 300 (≈ 961 µM) | 300 (≈ 961 µM) | 300 (≈ 961 µM) | 300 (≈ 961 µM) | 100 (≈ 320 µM) | 100 (≈ 320 µM) | 987 | > 3000 | – |
| CCOC(=O)c1cc(S(N)(=O)=O)c(F)cc1Cl [Compound 42] | – | – | – | – | – | – | – | – | – | > 1000 | > 3000 | responders at 100 mg/kg (influenza virus A/WSN; po): 40%; responders at 300 mg/kg (influenza virus A/WSN; po): 50% |
| NNS(=O)(=O)c1cc(C(=O)O)ccc1Cl [Compound 7] | 60 | – | 100 (≈ 399 µM) | 300 (≈ 1200 µM) | 300 (≈ 1200 µM) | 300 (≈ 1200 µM) | 300 (≈ 1200 µM) | 300 (≈ 1200 µM) | 10 (≈ 39.9 µM) | 746 | > 3000 | responders at 100 mg/kg (influenza A0 virus; oral): 40%; responders at 10 mg/kg (influenza A0 virus; ip, intraperitoneal): 30%; responders at 30 mg/kg (influenza A0 virus; ip, intraperitoneal): 50%; protective action against death due to the infection (influenza A0 virus): extremely excellent activity |
| CCC(C)OC(=O)c1cc(S(N)(=O)=O)c(Cl)cc1Cl (stereo not shown) [Compound 36] | – | – | – | – | – | – | – | – | – | > 1000 | > 3000 | responders at 30 mg/kg (influenza virus A/WSN; ip): 30%; responders at 100 mg/kg (influenza virus A/WSN; ip): 40% |
| O=C(O)c1ccc(Cl)c(S(=O)(=O)NCCO)c1 [Compound 5] | 50 | 40 | 300 (≈ 1070 µM) | 300 (≈ 1070 µM) | 300 (≈ 1070 µM) | 300 (≈ 1070 µM) | 100 (≈ 358 µM) | 300 (≈ 1070 µM) | 30 (≈ 107 µM) | > 1000 | > 3000 | – |
| NS(=O)(=O)c1cc(Cl)cc(C(=O)O)c1 [Compound 25] | 50 | 40 | 100 (≈ 424 µM) | 300 (≈ 1270 µM) | 300 (≈ 1270 µM) | 300 (≈ 1270 µM) | 300 (≈ 1270 µM) | 300 (≈ 1270 µM) | 30 (≈ 127 µM) | > 1000 | > 3000 | – |
| CONS(=O)(=O)c1cc(C(=O)O)ccc1Cl [Compound 4] | 40 | 50 | 100 (≈ 376 µM) | 300 (≈ 1130 µM) | 300 (≈ 1130 µM) | 300 (≈ 1130 µM) | 300 (≈ 1130 µM) | 300 (≈ 1130 µM) | 30 (≈ 113 µM) | > 1000 | > 3000 | – |
| O=C(O)c1ccc(Cl)c(S(=O)(=O)N2CCOCC2)c1 [Compound 11] | – | – | – | – | – | – | – | – | – | – | – | LD50 value, Intraperitoneal administration ([1]; i.p.): >1,000 mg/kg; LD50 value, Oral administration ([1]; p.o.): >3,000 mg/kg |
| O=C(O)c1ccc(Cl)c(S(=O)(=O)N2CCCC2)c1 [Compound 12] | 40 | 40 | 300 (≈ 1040 µM) | 300 (≈ 1040 µM) | 100 (≈ 345 µM) | 300 (≈ 1040 µM) | 300 (≈ 1040 µM) | 300 (≈ 1040 µM) | 30 (≈ 104 µM) | > 1000 | > 3000 | – |
| CC(C)OC(=O)c1cc(S(N)(=O)=O)c(Cl)cc1Cl [Compound 34] | – | – | – | – | – | – | – | – | – | > 1000 | > 3000 | responders at 30 mg/kg (influenza virus A/WSN; ip): 30%; responders at 100 mg/kg (influenza virus A/WSN; ip): 40% |
| NS(=O)(=O)c1cc(C(=O)O)c(Br)cc1Cl [Compound 18] | 70 | 70 | 300 (≈ 954 µM) | 300 (≈ 954 µM) | 30 (≈ 95.4 µM) | 3 (≈ 9.54 µM) | 300 (≈ 954 µM) | 300 (≈ 954 µM) | 30 (≈ 95.4 µM) | > 1000 | > 3000 | responders at 100 mg/kg (influenza A0 virus; oral): 50%; responders at 30 mg/kg (influenza A0 virus; ip, intraperitoneal): 50%; protective action against death due to the infection (influenza A0 virus): extremely excellent activity |
| CN(C)S(=O)(=O)c1cc(C(=O)O)ccc1Cl [Compound 3] | – | – | – | – | – | – | – | – | – | – | – | LD50 value, Intraperitoneal administration ([1]; i.p.): >1,000 mg/kg; LD50 value, Oral administration ([1]; p.o.): >3,000 mg/kg |
| NS(=O)(=O)c1cc(C(=O)O)c(Cl)cc1F [Compound 17] | 40 | 40 | 300 (≈ 1180 µM) | 300 (≈ 1180 µM) | 300 (≈ 1180 µM) | 300 (≈ 1180 µM) | 300 (≈ 1180 µM) | 300 (≈ 1180 µM) | 30 (≈ 118 µM) | > 1000 | > 3000 | – |
| Nc1cc(Cl)c(S(N)(=O)=O)cc1C(=O)O [Compound 14] | 50 | 40 | 300 (≈ 1200 µM) | 100 (≈ 399 µM) | 300 (≈ 1200 µM) | 300 (≈ 1200 µM) | 300 (≈ 1200 µM) | 300 (≈ 1200 µM) | 30 (≈ 120 µM) | > 1000 | > 3000 | – |
| NS(=O)(=O)c1cc(C(=O)O)cc(Cl)c1Cl [Compound 20] | 80 | 70 | 100 (≈ 370 µM) | 100 (≈ 370 µM) | 300 (≈ 1110 µM) | 100 (≈ 370 µM) | 30 (≈ 111 µM) | 30 (≈ 111 µM) | 10 (≈ 37 µM) | > 1000 | > 3000 | responders at 30 mg/kg (influenza A0 virus; oral): 40%; responders at 100 mg/kg (influenza A0 virus; oral): 60%; responders at 10 mg/kg (influenza A0 virus; ip, intraperitoneal): 40%; responders at 30 mg/kg (influenza A0 virus; ip, intraperitoneal): 60%; protective action against death due to the infection (influenza A0 virus): extremely excellent activity |
| CNS(=O)(=O)c1cc(C(=O)O)ccc1Cl [Compound 1] | – | – | – | – | – | – | – | – | – | – | – | LD50 value, Intraperitoneal administration ([1]; i.p.): >1,000 mg/kg; LD50 value, Oral administration ([1]; p.o.): >3,000 mg/kg |
| COC(=O)c1ccc(F)c(S(N)(=O)=O)c1 [Compound 28] | – | – | – | – | – | – | – | – | – | – | – | LD50 value, Intraperitoneal administration ([1]; i.p.): >1,000 mg/kg; LD50 value, Oral administration ([1]; p.o.): >3,000 mg/kg |
